Data from PubChem BioAssay AID1963970 (Molecular Pharmacology Branch, DTP, NCI, 2024).
pIC50: −log10 of the molar value. “And” between values parts separate entries of the source, which are not always exact repeats. Equal entries are not always repeated.

Test system: 931267-113-T-J1-PDC multicell spheroid viability
Assay: Anticancer human tumor 931267-113-T-J1-PDC patient-derived colon adenocarcinoma cell line growth inhibition [PI3K]
Settings: for viability, T/C: stronger effect = lower value
Summary of the method: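 Combination activity was assessed by viability in multicellular tumor spheroids carrying HUVEC and MSC components. Agents were tested with PI3K inhibitors from a Cmax-based top dose (or 10 microM) downward in half-log increments.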

[1] = curve of first compound, second compound 0.00316 µM
[2] = curve of first compound, second compound 0.01 µM
[3] = curve of first compound, second compound 0.0316 µM
[4] = curve of first compound, second compound 0.1 µM
[5] = curve of first compound, second compound 0.316 µM
[6] = curve of first compound, second compound 1 µM
[7] = second compound 0.00316 µM, first compound 0.0316 µM
[8] = second compound 0.00316 µM, first compound 0.1 µM
[9] = second compound 0.00316 µM, first compound 0.316 µM
[10] = second compound 0.00316 µM, first compound 1 µM
[11] = second compound 0.00316 µM, first compound 3.16 µM
[12] = second compound 0.00316 µM, first compound 10 µM
[13] = second compound 0.01 µM, first compound 0.0316 µM
[14] = second compound 0.01 µM, first compound 0.1 µM
[15] = second compound 0.01 µM, first compound 0.316 µM
[16] = second compound 0.01 µM, first compound 1 µM
[17] = second compound 0.01 µM, first compound 3.16 µM
[18] = second compound 0.01 µM, first compound 10 µM
[19] = second compound 0.0316 µM, first compound 0.0316 µM
[20] = second compound 0.0316 µM, first compound 0.1 µM
[21] = second compound 0.0316 µM, first compound 0.316 µM
[22] = second compound 0.0316 µM, first compound 1 µM
[23] = second compound 0.0316 µM, first compound 3.16 µM
[24] = second compound 0.0316 µM, first compound 10 µM
[25] = second compound 0.1 µM, first compound 0.0316 µM
[26] = second compound 0.1 µM, first compound 0.1 µM
[27] = second compound 0.1 µM, first compound 0.316 µM
[28] = second compound 0.1 µM, first compound 1 µM
[29] = second compound 0.1 µM, first compound 3.16 µM
[30] = second compound 0.1 µM, first compound 10 µM
[31] = second compound 0.316 µM, first compound 0.0316 µM
[32] = second compound 0.316 µM, first compound 0.1 µM
[33] = second compound 0.316 µM, first compound 0.316 µM
[34] = second compound 0.316 µM, first compound 1 µM
[35] = second compound 0.316 µM, first compound 3.16 µM
[36] = second compound 0.316 µM, first compound 10 µM
[37] = second compound 1 µM, first compound 0.0316 µM
[38] = second compound 1 µM, first compound 0.1 µM
[39] = second compound 1 µM, first compound 0.316 µM
[40] = second compound 1 µM, first compound 1 µM
[41] = second compound 1 µM, first compound 3.16 µM
[42] = second compound 1 µM, first compound 10 µM
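Note: viability read 7 days after compound addition.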

Compound: Cn1ncc(Cl)c1-c1cc(C(=O)NC(CN)Cc2cccc(F)c2)sc1Cl (centres undefined) + CC(Nc1ccc2c(c1)OCCn1cc(N3C(=O)OCC3C(F)F)nc1-2)C(N)=O
- pIC50 [1]: 5.29
- pIC50 [2]: 5.28
- pIC50 [3]: 5.30
- pIC50 [4]: 5.41
- pIC50 [5]: 5.39
- pIC50 [6]: 5.45
- viability, T/C [7]: 94.7%
- viability, T/C [8]: 102%
- viability, T/C [9]: 85.5%
- viability, T/C [10]: 88.3%
- viability, T/C [11]: 71.1%
- viability, T/C [12]: 22.8%
- viability, T/C [13]: 98.3%
- viability, T/C [14]: 90.7%
- viability, T/C [15]: 91%
- viability, T/C [16]: 79.2%
- viability, T/C [17]: 70.9%
- viability, T/C [18]: 27.6%
- viability, T/C [19]: 103%
- viability, T/C [20]: 89.2%
- viability, T/C [21]: 94.8%
- viability, T/C [22]: 86.3%
- viability, T/C [23]: 66.1%
- viability, T/C [24]: 25.9%
- viability, T/C [25]: 110%
- viability, T/C [26]: 92.6%
- viability, T/C [27]: 92.5%
- viability, T/C [28]: 75.1%
- viability, T/C [29]: 61.1%
- viability, T/C [30]: 20.3%
- viability, T/C [31]: 80.8%
- viability, T/C [32]: 94.4%
- viability, T/C [33]: 76.4%
- viability, T/C [34]: 73.2%
- viability, T/C [35]: 60.1%
- viability, T/C [36]: 20.9%
- viability, T/C [37]: 82%
- viability, T/C [38]: 70.7%
- viability, T/C [39]: 80.7%
- viability, T/C [40]: 63.8%
- viability, T/C [41]: 54.7%
- viability, T/C [42]: 21.4%

Compound: C#Cc1c(F)ccc2cc(O)cc(-c3ncc4c(N5CC6CCC(C5)N6)nc(OCC56CCCN5CC(F)C6)nc4c3F)c12 (centres undefined) + CC(Nc1ccc2c(c1)OCCn1cc(N3C(=O)OCC3C(F)F)nc1-2)C(N)=O
- pIC50 [1]: 6.27
- pIC50 [2]: 6.38
- pIC50 [3]: 6.44
- pIC50 [4]: 6.66
- pIC50 [5]: 6.75
- pIC50 [6]: 7.25
- viability, T/C [7]: 76.7%
- viability, T/C [8]: 76.6%
- viability, T/C [9]: 49%
- viability, T/C [10]: 45.8%
- viability, T/C [11]: 33.9%
- viability, T/C [12]: 26%
- viability, T/C [13]: 79%
- viability, T/C [14]: 65.4%
- viability, T/C [15]: 52.9%
- viability, T/C [16]: 41.8%
- viability, T/C [17]: 31.3%
- viability, T/C [18]: 24.8%
- viability, T/C [19]: 83.5%
- viability, T/C [20]: 65.3%
- viability, T/C [21]: 53.4%
- viability, T/C [22]: 36.6%
- viability, T/C [23]: 29.1%
- viability, T/C [24]: 18.8%
- viability, T/C [25]: 82.4%
- viability, T/C [26]: 63.3%
- viability, T/C [27]: 43.7%
- viability, T/C [28]: 29.4%
- viability, T/C [29]: 22.9%
- viability, T/C [30]: 17%
- viability, T/C [31]: 72.3%
- viability, T/C [32]: 56.4%
- viability, T/C [33]: 45%
- viability, T/C [34]: 25.1%
- viability, T/C [35]: 19.8%
- viability, T/C [36]: 13.3%
- viability, T/C [37]: 57.5%
- viability, T/C [38]: 43.9%
- viability, T/C [39]: 26%
- viability, T/C [40]: 23.6%
- viability, T/C [41]: 14.7%
- viability, T/C [42]: 10.8%

Compound: C=CC(=O)N1CCN(c2nc(=O)n(-c3c(C)ccnc3C(C)C)c3nc(-c4c(O)cccc4F)c(F)cc23)C(C)C1 (centres undefined)
- viability, T/C (compound 0.0316 µM): 119% and 104% (2×) and 102%
- viability, T/C (compound 0.316 µM): 106% [middle of 4 runs]
- viability, T/C (compound 1 µM): 109% [middle of 4 runs]
- viability, T/C (compound 3.16 µM): 108% and 110% (2×) and 107%
- viability, T/C (compound 10 µM): 104% and 105% (2×) and 99.7%
- pIC50 (curve of compound): < 5.00

Compound: C=CC(=O)N1CCN(c2nc(=O)n(-c3c(C)ccnc3C(C)C)c3nc(-c4c(O)cccc4F)c(F)cc23)C(C)C1 (centres undefined) + Cc1nc(NC(=O)N2CCCC2C(N)=O)sc1-c1ccnc(C(C)(C)C(F)(F)F)c1
- pIC50 [3]: < 5.00
- pIC50 [4]: < 5.00
- pIC50 [5]: < 5.00
- pIC50 [6]: < 5.00
- pIC50 (curve of first compound, second compound 3.16 µM): < 5.00
- pIC50 (curve of first compound, second compound 10 µM): < 5.00
- viability, T/C [19]: 86.3%
- viability, T/C [20]: 91.1%
- viability, T/C [21]: 99.2%
- viability, T/C [22]: 104%
- viability, T/C [23]: 108%
- viability, T/C [24]: 85.5%
- viability, T/C [25]: 99.6%
- viability, T/C [26]: 78.7%
- viability, T/C [27]: 85.7%
- viability, T/C [28]: 100%
- viability, T/C [29]: 105%
- viability, T/C [30]: 82.7%
- viability, T/C [31]: 80.6%
- viability, T/C [32]: 87.2%
- viability, T/C [33]: 94.1%
- viability, T/C [34]: 91.8%
- viability, T/C [35]: 84.7%
- viability, T/C [36]: 76.9%
- viability, T/C [37]: 83.5%
- viability, T/C [38]: 76.6%
- viability, T/C [39]: 73.9%
- viability, T/C [40]: 83.7%
- viability, T/C [41]: 94.7%
- viability, T/C [42]: 65.6%
- viability, T/C (second compound 3.16 µM, first compound 0.0316 µM): 66.3%
- viability, T/C (second compound 3.16 µM, first compound 0.1 µM): 71.3%
- viability, T/C (second compound 3.16 µM, first compound 0.316 µM): 71.1%
- viability, T/C (second compound 3.16 µM, first compound 1 µM): 72.7%
- viability, T/C (second compound 3.16 µM, first compound 3.16 µM): 71.2%
- viability, T/C (second compound 3.16 µM, first compound 10 µM): 59%
- viability, T/C (second compound 10 µM, first compound 0.0316 µM): 54.6%
- viability, T/C (second compound 10 µM, first compound 0.1 µM): 55.2%
- viability, T/C (second compound 10 µM, first compound 0.316 µM): 59.2%
- viability, T/C (second compound 10 µM, first compound 1 µM): 62.6%
- viability, T/C (second compound 10 µM, first compound 3.16 µM): 62.4%
- viability, T/C (second compound 10 µM, first compound 10 µM): 49%

Compound: CC1(C)CCC(Nc2ncc(C(F)(F)F)c(-c3c[nH]c4c(P(C)(C)=O)c(C#N)ccc34)n2)CN1 (centres undefined) + CC(Nc1ccc2c(c1)OCCn1cc(N3C(=O)OCC3C(F)F)nc1-2)C(N)=O
- pIC50 [1]: < 5.00
- pIC50 [2]: < 5.00
- pIC50 [3]: 5.07
- pIC50 [4]: < 5.00
- pIC50 [5]: 5.19
- pIC50 [6]: 5.32
- viability, T/C [7]: 99.7%
- viability, T/C [8]: 88.6%
- viability, T/C [9]: 85.2%
- viability, T/C [10]: 71.8%
- viability, T/C [11]: 78.2%
- viability, T/C [12]: 49.5%
- viability, T/C [13]: 102%
- viability, T/C [14]: 89.2%
- viability, T/C [15]: 83.5%
- viability, T/C [16]: 74.6%
- viability, T/C [17]: 67.7%
- viability, T/C [18]: 49.8%
- viability, T/C [19]: 91.2%
- viability, T/C [20]: 88.2%
- viability, T/C [21]: 79.6%
- viability, T/C [22]: 71.5%
- viability, T/C [23]: 72.8%
- viability, T/C [24]: 45%
- viability, T/C [25]: 99.7%
- viability, T/C [26]: 90.5%
- viability, T/C [27]: 76.6%
- viability, T/C [28]: 74%
- viability, T/C [29]: 73.7%
- viability, T/C [30]: 46.2%
- viability, T/C [31]: 87%
- viability, T/C [32]: 79%
- viability, T/C [33]: 72.9%
- viability, T/C [34]: 74.1%
- viability, T/C [35]: 73.1%
- viability, T/C [36]: 36%
- viability, T/C [37]: 81.4%
- viability, T/C [38]: 75.4%
- viability, T/C [39]: 64.2%
- viability, T/C [40]: 65.2%
- viability, T/C [41]: 64.2%
- viability, T/C [42]: 34.6%
